Article PMC6272674, “Selected Compounds Structurally Related to Acyclic Sesquiterpenoids and Their Antibacterial and Cytotoxic Activity” (Molecules, 2015)
Converted amounts (≈) assume the structure as drawn.

Key:
[1] = tested on: Escherichia coli ATCC 25922; design: method as in doi:10.1002/ffj.3238; conditions: data presented by the authors before; cited from earlier work
[2] = MTT viability, HaCaT; assay type: cell-based, human; conditions: human, HaCaT keratinocytes, 1000 µM (IC50 exceeded 1000 µM), read-out: viability ± standard deviation at 1000 µM
Protocol: (§1) Cell lines and in vitro culture conditions: The human promyelocytic leukaemia cell line HL-60 was obtained from the Centre of Molecular and Macromolecular Biology in Łódź, Poland and was cultured in RPMI 1640 medium with 20% heat-inactivated fetal bovine serum (FBS). To reduce spontaneous differentiation, the cells were never allowed to exceed a concentration of 1.0 × 10^6 cells/mL. The human keratinocyte cell line HaCaT was obtained from Cell Lines Service, Germany (CLS) and cultured in DMEM medium with 10% FBS. Human colorectal adenocarcinoma HT29 and normal epithelial IEC-6 cell lines (from ATCC) were cultured in DMEM medium with 10% FBS. The human skin melanoma cell line MEWO (from CLS) was cultured in DMEM:F12 supplemented with 2 mM L-glutamine and 10% FBS. Human fibroblasts from gingiva isolated from original tissue, HFIB-G, (from Provitro) were cultured in Quantum 333 (from Immunique). The media were supplemented with 100 U/mL penicillin and 100 µg/mL streptomycin; all media components were obtained from Life Technologies. The adherent cell lines used in the studies were seeded on microplates before they exceeded 80% of confluence. Cells were cultured at 37 °C in 5% CO2 air atmosphere/95% air atmosphere.
(§2) Cytotoxic activity: The cells (the density for HL-60 was 0.5 × 10^4 cells/100 µL, otherwise it was 1 × 10^4 cells/100 µL) were plated into each well of 96-well microtiter plates and, after their attachment to the plate surface, treated with 10 µL of the indicated concentrations of compounds for 24 h. Viability was determined by MTT assay following the treatment. MTT (3-[4.5-dimethylthiazol-2-yl]-2.5-diphenyltetrazolium bromide; Sigma, St. Louis, MO, USA) solution was added to each well and incubated for another 4 h. The resulting MTT-formazan product was dissolved by the addition of lysis buffer (20% SDS and 50% DMF). The amount of formazan was determined by measuring absorbance at 570 nm with a Synergy 2 microplate reader (BioTek, Winooski, VT, USA) operated by the Gen5 program. The experiments were conducted three times with five replications. The results are expressed as an optical density ratio of the treatment to control. All data are presented as means ± SD.

[3] = MTT viability, MEWO; assay type: cell-based, human; conditions: human, MEWO malignant melanoma cells, 1000 µM (IC50 exceeded 1000 µM), read-out: viability ± standard deviation at 1000 µM
Protocol: as §1, §2

[4] = MTT viability, IEC6; assay type: cell-based; conditions: rat, IEC-6 small intestine epithelial cells, 1000 µM (IC50 exceeded 1000 µM), read-out: viability ± standard deviation at 1000 µM
Protocol: as §1, §2

[5] = tested on: Staphylococcus aureus ATCC 43300; design: method as in doi:10.1002/ffj.3238; conditions: data presented by the authors before; cited from earlier work
[6] = MTT viability, HFIG; assay type: cell-based, human; conditions: human, HFIG (HFIB-G) gingival fibroblasts, 1000 µM (IC50 exceeded 1000 µM), read-out: viability ± standard deviation at 1000 µM
Protocol: as §1, §2

[7] = MTT viability, HT29; assay type: cell-based, human; conditions: human, HT29 colorectal adenocarcinoma cells, 1000 µM (IC50 exceeded 1000 µM), read-out: viability ± standard deviation at 1000 µM
Protocol: as §1, §2

[8] = tested on: Enterococcus faecium ATCC 35667; design: method as in doi:10.1002/ffj.3238; conditions: data presented by the authors before; cited from earlier work
[9] = tested on: Enterococcus faecalis ATCC 51299; design: method as in doi:10.1002/ffj.3238; conditions: data presented by the authors before; cited from earlier work
[10] = tested on: Klebsiella pneumoniae ATCC 700603; design: method as in doi:10.1002/ffj.3238; conditions: data presented by the authors before; cited from earlier work
[11] = tested on: Promyelocytic Leukaemia HL-60; assay: MTT viability, HL-60; assay type: cell-based, human; conditions: Homo sapiens, HL-60, 24 h, HL-60, MTT, range 10–1000 µM, read-out: half maximal inhibitory concentration (IC50), interpolated
Protocol: as §1, §2

[12] = tested on: Acinetobacter baumannii ATCC 19606; design: method as in doi:10.1002/ffj.3238; conditions: data presented by the authors before; cited from earlier work
[13] = tested on: Keratinocytes HaCaT; assay: MTT viability, HaCaT; assay type: cell-based, human; conditions: Homo sapiens, 24 h, range 10–1000 µM, read-out: half maximal inhibitory concentration (IC50), interpolated
Protocol: as §1, §2

[14] = tested on: Escherichia coli ATCC 25922; assay: Micro-dilution broth MIC, Escherichia coli; assay type: cell-based; conditions: ATCC25922, 24 h, 37 °C, read-out: Minimum Inhibitory Concentrations MIC
Protocol: (§3) The standard strains, Gram-positive: Staphylococcus aureus ATCC […], Enterococcus faecalis Van B ATCC 51299 and Enterococcus faecium VA sensitive ATCC 35667, and Gram-negative: Escherichia coli ATCC 25922, Klebsiella pneumoniae ATCC 700603 and Acinetobacter baumannii ATCC 19606, came from a collection of the Environmental Biology Department, Medical University of Łódź. The standard strains were cultivated in Columbia Agar Medium and incubated at 37 °C for 24 h in aerobic conditions.
(§4) The antibacterial activity of the racemates and E/Z-mixtures was investigated using the micro‑dilution broth method. The compounds were diluted in ethanol. This stock solution was mixed with 100 µL of Mueller-Hinton broth to obtain concentrations from 10 µg/mL to 80 µg/mL. The mixtures were then transferred to 96-well microtiter plates. The microbial suspension was standardised to a cell density of 1.5 × 10^8 CFU, which was equal to an optical density of 0.5 on the Mc Farland scale by a bio-Merieux densitometer; one well was filled with broth only to act as a control for strain growth.

[15] = tested on: Malignant Melanoma MEWO; assay: MTT viability, MEWO; assay type: cell-based, human; conditions: Homo sapiens, 24 h, range 10–1000 µM, read-out: half maximal inhibitory concentration (IC50), interpolated
Protocol: as §1, §2

[16] = tested on: Acinetobacter baumannii ATCC 19606; assay: Micro-dilution broth MIC, Acinetobacter baumannii; assay type: cell-based; conditions: ATCC19606, 24 h, 37 °C, read-out: Minimum Inhibitory Concentrations MIC
Protocol: as §3, §4

[17] = tested on: Enterococcus faecalis ATCC 51299; assay: Micro-dilution broth MIC, Enterococcus faecalis; assay type: cell-based; conditions: ATCC51299, 24 h, 37 °C, read-out: Minimum Inhibitory Concentrations MIC
Protocol: as §3, §4

[18] = tested on: Fibroblasts HFIG; assay: MTT viability, HFIG; assay type: cell-based, human; conditions: Homo sapiens, Fibroblast, 24 h, range 10–1000 µM, read-out: half maximal inhibitory concentration (IC50), interpolated
Protocol: as §1, §2

[19] = tested on: Enterococcus faecium ATCC 35667; assay: Micro-dilution broth MIC, Enterococcus faecium; assay type: cell-based; conditions: ATCC35667, 24 h, 37 °C, read-out: Minimum Inhibitory Concentrations MIC
Protocol: as §3, §4

[20] = tested on: Klebsiella pneumoniae ATCC 700603; assay: Micro-dilution broth MIC, Klebsiella pneumoniae; assay type: cell-based; conditions: ATCC700603, 24 h, 37 °C, read-out: Minimum Inhibitory Concentrations MIC
Protocol: as §3, §4

[21] = tested on: Staphylococcus aureus ATCC 43300; assay: Micro-dilution broth MIC, Staphylococcus aureus; assay type: cell-based; conditions: ATCC43300, 24 h, 37 °C, read-out: Minimum Inhibitory Concentrations MIC
Protocol: as §3, §4

| SMILES | IC50 [11] | MIC [14] | IC50 [15] | MIC [16] | MIC [17] | MIC [19] | MIC [20] | Minimum Inhibitory Concentrations MIC [1] | viability at 24 h, 1000 µM [2] | viability at 24 h, 1000 µM [3] | viability at 24 h, 1000 µM [4] | Minimum Inhibitory Concentrations MIC [5] | viability at 24 h, 1000 µM [6] | viability at 24 h, 1000 µM [7] | Minimum Inhibitory Concentrations MIC [8] | Minimum Inhibitory Concentrations MIC [9] | Minimum Inhibitory Concentrations MIC [10] | Minimum Inhibitory Concentrations MIC [12] | IC50 [13] | IC50 [18] | other results |
| --- | --- | --- | --- | --- | --- | --- | --- | --- | --- | --- | --- | --- | --- | --- | --- | --- | --- | --- | --- | --- | --- |
| C=CC(C)(O)C(C)CC(C)CCC=C(C)C (stereo not drawn) [Compound 17] | 750 µM | – | – | – | – | – | – | 46 µg/mL | 95% | 112% | 98% | 48 µg/mL | 87% | 108% | 38 µg/mL | 38 µg/mL | 18 µg/mL | 16 µg/mL | – | – | – |
| C=CC(C)(O)CCC=C(C)C(C)CCCC(C)C (stereo not drawn) [Compound 14] | 750 µM | – | – | – | – | – | – | 38 µg/mL | 106% | 99% | 65% | 48 µg/mL | 99% | 112% | 36 µg/mL | 38 µg/mL | 18 µg/mL | 28 µg/mL | – | – | – |
| C=CC(C)(O)CC(C)CCC=C(C)C (stereo not drawn) [Compound 15] | 750 µM | – | – | – | – | – | – | 28 µg/mL | 90% | 104% | 110% | 46 µg/mL | 96% | 104% | 38 µg/mL | 48 µg/mL | 16 µg/mL | 16 µg/mL | – | – | – |
| CC(C)=CCCC(C)CC(C)=CC=O (stereo not drawn) [Compound 21, 3,5,9-Trimethyldeca-2,8-dienal] | 600 µM | 54 µg/mL (≈ 278 µM) | 640 µM | 52 µg/mL (≈ 268 µM) | 38 µg/mL (≈ 196 µM) | 42 µg/mL (≈ 216 µM) | 48 µg/mL (≈ 247 µM) | – | – | – | 91% | – | – | 98% | – | – | – | – | 830 µM | 830 µM | MIC [21]: 32 µg/mL (≈ 165 µM) |
| CC(C)=CCCC(C)/C=C/CCC(C)=CC=O (stereo not drawn) [Compound 19, (6E)-3,8,12-Trimethyltrideca-2,6,11-trienal] | 550 µM | 44 µg/mL (≈ 188 µM) | 600 µM | 42 µg/mL (≈ 179 µM) | 34 µg/mL (≈ 145 µM) | 38 µg/mL (≈ 162 µM) | 36 µg/mL (≈ 154 µM) | – | – | – | 94% | – | – | 96% | – | – | – | – | 650 µM | 750 µM | MIC [21]: 28 µg/mL (≈ 119 µM) |
| CC(C)=CCCC(C)CCC(C)=CC=O (stereo not drawn) [Compound 22, 3,6,10-Trimethylundeca-2,9-dienal] | 600 µM | 44 µg/mL (≈ 211 µM) | 700 µM | 36 µg/mL (≈ 173 µM) | 24 µg/mL (≈ 115 µM) | 46 µg/mL (≈ 221 µM) | 36 µg/mL (≈ 173 µM) | – | – | – | 76% | – | – | 93% | – | – | – | – | 880 µM | 740 µM | MIC [21]: 26 µg/mL (≈ 125 µM) |

Now those with a lower IC50 [11], led by results:

| IC50 [11] | MIC [14] | IC50 [15] | MIC [16] | MIC [17] | MIC [19] | MIC [20] | SMILES | Minimum Inhibitory Concentrations MIC [1] | viability at 24 h, 1000 µM [2] | viability at 24 h, 1000 µM [3] | viability at 24 h, 1000 µM [4] | Minimum Inhibitory Concentrations MIC [5] | viability at 24 h, 1000 µM [6] | viability at 24 h, 1000 µM [7] | Minimum Inhibitory Concentrations MIC [8] | Minimum Inhibitory Concentrations MIC [9] | Minimum Inhibitory Concentrations MIC [10] | Minimum Inhibitory Concentrations MIC [12] | IC50 [13] | IC50 [18] | other results |
| --- | --- | --- | --- | --- | --- | --- | --- | --- | --- | --- | --- | --- | --- | --- | --- | --- | --- | --- | --- | --- | --- |
| 400 µM | – | – | – | – | – | – | C=CC(C)(O)CCC=CC(C)CCC=C(C)C (stereo not drawn) [Compound 13] | 40 µg/mL | 87% | 83% | 96% | 46 µg/mL | 87% | 99% | 38 µg/mL | 42 µg/mL | 20 µg/mL | 22 µg/mL | – | – | – |
| ~295 µM | – | – | – | – | – | – | CC(=O)CCC=C(C)CCC=C(C)C [Geranyl acetone (1), geranyl acetone, reference compound] | 26 µg/mL | 89% | 93% | 79% | 48 µg/mL | 82% | 98% | 28 µg/mL | 36 µg/mL | 18 µg/mL | 18 µg/mL | – | – | – |
| 500 µM | – | – | – | – | – | – | C=CC(C)(O)CCC=C(C)C(C)CCC=C(C)C (stereo not drawn) [Compound 12] | 40 µg/mL | 101% | 97% | 73% | 48 µg/mL | 110% | 97% | 42 µg/mL | 46 µg/mL | 28 µg/mL | 26 µg/mL | – | – | – |
| 502 µM | 52 µg/mL (≈ 209 µM) | 630 µM | 46 µg/mL (≈ 185 µM) | 22 µg/mL (≈ 88.6 µM) | 28 µg/mL (≈ 113 µM) | 46 µg/mL (≈ 185 µM) | CC(C)=CCCC(C)C(C)=CCCC(C)=CC=O (stereo not drawn) [Compound 18, 3,7,8,12-Tetramethyltrideca-2,6,11-trienal] | – | – | – | 79% | – | – | 98% | – | – | – | – | 800 µM | 690 µM | MIC [21]: 18 µg/mL (≈ 72.5 µM) |
